Patent publication US12102633B2, “Spirolactone compounds” (Quixgen, Inc., priority 2017, dated 2024)

Legend:
[1] = target: T1, human ACC2 (Homo sapiens, UniProt O00763); assay: Human ACC enzymatic activity assay (ACC2); type: biochemical; conditions: purified human ACC2; read-out: EA-CoA hACC 2 IC50
T1 construct: purchased BPS Bioscience
Experimental: (§1) Human ACC enzymatic activity assays were performed by using purified human ACC1 and ACC2 proteins (BPS Bioscience). ACC1 and ACC2 proteins were diluted in 24.5 μL reaction buffer (50 mM HEPES pH 7.5, 10 mM MgCl2, 2.0 mM DTT, 4.0 mM ATP, 15 mM ^13C-NaHCO3, 0.75 mg/mL BSA, 0.5 mM sodium citrate), and final concentrations of ACC1 and ACC2 were 0.4 μg/mL and 0.48 μg/mL. For each reaction, 0.5 μL of serial diluted compounds were prepared in DMSO in duplicate or triplicate and mixed with the above 24.5 μL reaction mixtures with ACC proteins at 37° C. for 10 min. Meanwhile, 25 μL of reaction buffer plus acetyl-CoA (final concentration: 5 μM) was prepared freshly and added to the above 25 μL mixture to initiate the reaction. After incubation at 37° C. for 1-2 hours, 100 μl ice-cold 10% TCA with malonyl-^13C3-CoA (final concentration: 40 nM, Sigma-Aldrich) was added to terminate the reaction. For LC-MS/MS analysis, 300 μL quenching buffer (acetonitrile:methanol=1:1, 20 μM carbutamide as internal standard) was added to each tube and mixed well. Samples were then centrifuged at 14,000 rpm for 10 min (Eppendorf) and supernatants were loaded onto LC-MS/MS for quantitation of […] (Gao et al., Journal of chromatography B, Analytical technologies in the biomedical and life sciences 853, 303-313 (2007)).
(§2) Shimadzu LC system was used for sample analysis consisting of system controller (Shimadzu CBM-20A), autosampler (Shimadzu SIL-20A), pump A and B (Shimadzu LC-20AD), column oven (Shimadzu CTO-20A), and analytical column (Phenomenex Gemini 5u C18 11A, 100×2 mm). LC was running at 200 μL/min in the binary gradient mode with mobile phase A (5 mM Ammonium Acetate and 5 mM DMBA in water (1,3-Dimethylbutylamine)) and B (methanol). The samples were analyzed on an AB Sciex QTrap4000 LC-MS/MS triple quadrupole mass spectrometer (Applied Biosystems). Malonyl-CoA and malonyl-13C-CoA were monitored in positive ion mode following MRM transitions at 854.2/347.1 and 855.1/246.1, respectively. The product and internal standard were coeluted to the mass spectrometer in 3 s with 50% H2O, 25% MeCN, 25% acetone, and 5 mM ammonium acetate. Ion chromatograms were integrated using the Analyst 1.5.2 software. Peak area ratios were compared against a standard curve and final cellular concentration of malonyl-CoA or production rate of malonyl-13C-CoA was calculated as pmoles/mg protein per minute.

[2] = target: T2, human ACC1 (Homo sapiens, UniProt Q13085); assay: Human ACC enzymatic activity assay (ACC1); type: biochemical; conditions: purified human ACC1; read-out: EA-CoA hACC 1 IC50
T2 construct: purchased BPS Bioscience
Experimental: as §1, §2

[3] = PK study in male C57 mouse for Examples 14 and 15; type: in vivo; conditions: for concentration at 0.5 h: 0.50 h
Experimental: Pharmacokinetic studies were carried out with male C57 mouse. Compounds (Example 14 and Example 15) were each formulated in 5% DMSO+10% Solutol HS 15+85% Saline, and dosed at 1 mpk for IV injection (5 mL/kg) and 10 mpk for oral gavage (10 mUkg). Plasma samples at various time points were quantitated with LC-MS. Data reported were average of three mice.
Tables 1 and 2 below show plasma concentrations (ng/mL) and PK parameters of Example 14 in male C57 mouse after 1 mpk IV injection and 10 mpk PO gavage, respectively. The plasma concentration (ng/mL) of the acid compound, Example 15, was also measured and reported below.
Tables 3 and 4 below show plasma concentrations (ng/mL) and PK parameters of Example 15 in male C57 mouse after 1 mpk IV injection and 10 mpk PO gavage, respectively.

[4] = male, C57, mouse, plasma, iv, 1 mg/kg, Example 14 dosed 1 mpk IV, analyte = labelled compound
[5] = male, C57, mouse, plasma, iv, 1 mg/kg, Example 15 dosed 1 mpk IV
[6] = male, C57, mouse, plasma, po, 10 mg/kg, Example 14 dosed 10 mpk PO gavage, analyte = labelled compound
[7] = male, C57, mouse, plasma, po, 10 mg/kg, Example 15 dosed 10 mpk PO gavage
[8] = plasma, 1 mg/kg, Example 15 dosed 1 mpk IV

T1 sequence (O00763 whole entry): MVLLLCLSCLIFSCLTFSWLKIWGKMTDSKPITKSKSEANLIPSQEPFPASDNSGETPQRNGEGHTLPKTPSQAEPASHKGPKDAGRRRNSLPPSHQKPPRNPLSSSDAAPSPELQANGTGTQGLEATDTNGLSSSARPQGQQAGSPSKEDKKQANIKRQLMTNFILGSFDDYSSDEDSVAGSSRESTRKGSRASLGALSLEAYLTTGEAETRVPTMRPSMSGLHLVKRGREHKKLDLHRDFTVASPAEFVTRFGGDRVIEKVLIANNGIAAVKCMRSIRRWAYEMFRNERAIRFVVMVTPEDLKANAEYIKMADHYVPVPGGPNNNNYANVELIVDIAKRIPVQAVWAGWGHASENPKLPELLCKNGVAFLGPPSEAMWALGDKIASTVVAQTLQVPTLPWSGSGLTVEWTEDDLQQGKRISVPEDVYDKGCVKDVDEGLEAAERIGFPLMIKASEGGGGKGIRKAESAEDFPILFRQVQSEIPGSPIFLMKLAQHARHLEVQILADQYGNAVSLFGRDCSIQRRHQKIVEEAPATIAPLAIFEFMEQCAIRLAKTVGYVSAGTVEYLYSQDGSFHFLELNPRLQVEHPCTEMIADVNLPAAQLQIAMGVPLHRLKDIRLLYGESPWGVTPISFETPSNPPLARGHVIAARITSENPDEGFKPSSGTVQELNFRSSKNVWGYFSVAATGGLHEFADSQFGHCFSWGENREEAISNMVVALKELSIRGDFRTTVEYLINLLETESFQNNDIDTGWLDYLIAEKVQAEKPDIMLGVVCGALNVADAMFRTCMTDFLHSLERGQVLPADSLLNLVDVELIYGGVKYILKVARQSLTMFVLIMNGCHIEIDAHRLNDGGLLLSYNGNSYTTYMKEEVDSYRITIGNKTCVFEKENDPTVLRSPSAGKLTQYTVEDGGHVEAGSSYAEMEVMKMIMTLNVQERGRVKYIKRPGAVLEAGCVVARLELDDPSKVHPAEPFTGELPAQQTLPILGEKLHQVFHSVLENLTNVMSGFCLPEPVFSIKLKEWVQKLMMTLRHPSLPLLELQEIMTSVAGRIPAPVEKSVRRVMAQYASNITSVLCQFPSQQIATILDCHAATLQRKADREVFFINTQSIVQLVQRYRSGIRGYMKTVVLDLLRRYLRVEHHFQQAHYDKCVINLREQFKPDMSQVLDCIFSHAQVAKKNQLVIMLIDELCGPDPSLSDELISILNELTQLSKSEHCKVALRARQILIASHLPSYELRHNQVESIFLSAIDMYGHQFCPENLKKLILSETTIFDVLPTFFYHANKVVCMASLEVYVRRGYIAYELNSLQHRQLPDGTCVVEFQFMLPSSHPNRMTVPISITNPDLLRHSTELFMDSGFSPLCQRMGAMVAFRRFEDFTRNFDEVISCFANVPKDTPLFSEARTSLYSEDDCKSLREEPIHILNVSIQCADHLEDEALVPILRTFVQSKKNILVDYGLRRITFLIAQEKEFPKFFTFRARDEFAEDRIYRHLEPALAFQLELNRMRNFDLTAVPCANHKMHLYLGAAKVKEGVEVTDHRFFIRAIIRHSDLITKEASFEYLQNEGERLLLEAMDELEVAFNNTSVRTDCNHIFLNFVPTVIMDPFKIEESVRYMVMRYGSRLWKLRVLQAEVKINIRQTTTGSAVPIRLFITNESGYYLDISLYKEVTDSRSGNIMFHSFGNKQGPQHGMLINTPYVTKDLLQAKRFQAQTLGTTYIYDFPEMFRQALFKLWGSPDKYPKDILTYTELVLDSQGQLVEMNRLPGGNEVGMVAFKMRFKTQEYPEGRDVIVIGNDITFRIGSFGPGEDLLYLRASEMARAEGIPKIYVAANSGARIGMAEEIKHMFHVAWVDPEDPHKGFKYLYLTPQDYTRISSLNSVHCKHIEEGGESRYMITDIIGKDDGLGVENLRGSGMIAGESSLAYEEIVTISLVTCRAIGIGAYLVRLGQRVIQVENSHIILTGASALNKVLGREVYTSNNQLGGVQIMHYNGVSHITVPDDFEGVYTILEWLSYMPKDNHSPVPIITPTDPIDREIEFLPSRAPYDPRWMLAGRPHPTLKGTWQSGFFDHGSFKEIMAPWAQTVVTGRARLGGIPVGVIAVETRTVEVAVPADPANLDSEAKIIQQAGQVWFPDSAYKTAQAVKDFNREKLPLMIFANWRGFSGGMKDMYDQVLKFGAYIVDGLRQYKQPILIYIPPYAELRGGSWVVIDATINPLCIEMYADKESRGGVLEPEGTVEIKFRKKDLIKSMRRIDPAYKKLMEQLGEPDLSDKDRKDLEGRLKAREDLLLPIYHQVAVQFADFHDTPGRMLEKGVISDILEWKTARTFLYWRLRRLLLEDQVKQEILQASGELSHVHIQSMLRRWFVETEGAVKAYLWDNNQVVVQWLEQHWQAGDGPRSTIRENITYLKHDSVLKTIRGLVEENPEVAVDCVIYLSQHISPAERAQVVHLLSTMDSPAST

In the case of `COc1cc(C(=O)N2CCC3(CC2)Cc2ccc(-c4cncc(C(=O)O)c4)cc2C(=O)O3)nc2c(OC)cccc12` [Example 15, 5-(1′-(4,8-dimethoxyquinoline-2-carbonyl)-1-oxospiro [isochroman-3,4′-piperidin]-7-yl)nicotinic acid], the IC50 [1] is reported as 33 nM, the IC50 [2] is reported as 27.5 nM and the “Plasma Concentration, Mean” value ([3]; Example 14 dosed 1 mpk IV, 24.00 h, analyte = labelled compound) is reported as “BLQ”. For the same compound, the “Plasma Concentration, Mean” value ([3]; Example 15 dosed 1 mpk IV, 4.00 h) was “BLQ”, the “Plasma Concentration, Mean” value ([3]; Example 15 dosed 1 mpk IV, 8.00 h) was “BLQ” and the “Plasma Concentration, Mean” value ([3]; Example 15 dosed 1 mpk IV, 24.00 h) was “BLQ”. For the same compound, the F ([3]; Example 15 dosed 10 mpk PO gavage) was 1.7%, the “Plasma Concentration, Mean” value ([3]; Example 15 dosed 10 mpk PO gavage, 24.00 h) was “BLQ” and the concentration at 0.08 h [3, 4] was 122 ng/mL. It also gave a concentration at 0.25 h [3, 4] of 161 ng/mL, a concentration at 0.5 h [3, 4] of 107 ng/mL and a concentration at 1 h [3, 4] of 55 ng/mL. For the same compound, the concentration at 2 h [3, 4] was 16 ng/mL, the concentration at 4 h ([3]; male, C57, mouse, plasma, iv, 1 mg/kg, Example 14 dosed 1 mpk IV, 4.00 h, analyte = labelled compound) was 3.4 ng/mL and the concentration at 8 h ([3]; male, C57, mouse, plasma, iv, 1 mg/kg, Example 14 dosed 1 mpk IV, 8.00 h, analyte = labelled compound) was 1.5 ng/mL. The MRT [3, 5] was 6.6 min, the concentration at 0.08 h [3, 5] was 3010 ng/mL and the concentration at 0.25 h [3, 5] was 414 ng/mL. For the same compound, the concentration at 0.5 h [3, 5] was 95 ng/mL, the concentration at 1 h [3, 5] was 28 ng/mL and the concentration at 2 h [3, 5] was 6.6 ng/mL. The concentration at 0.25 h [3, 6] was 152 ng/mL, the concentration at 0.5 h [3, 6] was 168 ng/mL and the concentration at 1 h [3, 6] was 146 ng/mL. For the same compound, the concentration at 2 h [3, 6] was 84 ng/mL, the concentration at 4 h ([3]; male, C57, mouse, plasma, po, 10 mg/kg, Example 14 dosed 10 mpk PO gavage, 4.00 h, analyte = labelled compound) was 43 ng/mL and the concentration at 8 h ([3]; male, C57, mouse, plasma, po, 10 mg/kg, Example 14 dosed 10 mpk PO gavage, 8.00 h, analyte = labelled compound) was 23 ng/mL. For the same compound, the concentration at 24 h ([3]; male, C57, mouse, plasma, po, 10 mg/kg, Example 14 dosed 10 mpk PO gavage, 24.00 h, analyte = labelled compound) was 2.1 ng/mL, the Cmax [3, 6] was 185 ng/mL and the MRT [3, 6] was 186 min. The Tmax [3, 6] was 34.8 min, the Cmax [3, 7] was 164 ng/mL and the MRT [3, 7] was 59.4 min. The Tmax [3, 7] was 15 min, the concentration at 0.25 h [3, 7] was 164 ng/mL and the concentration at 0.5 h [3, 7] was 99 ng/mL. For the same compound, the concentration at 1 h [3, 7] was 63 ng/mL, the concentration at 2 h [3, 7] was 11 ng/mL and the concentration at 4 h ([3]; male, C57, mouse, plasma, po, 10 mg/kg, Example 15 dosed 10 mpk PO gavage, 4.00 h) was 3.2 ng/mL. The concentration at 8 h ([3]; male, C57, mouse, plasma, po, 10 mg/kg, Example 15 dosed 10 mpk PO gavage, 8.00 h) was 2 ng/mL, the Vd [3, 8] was 0.49 L/kg and the clearance [3, 8] was 23.3 mL/min/kg. For the same compound, the half-life [3, 8] was 17.4 min.
